Laboratory results published in article PMC8235216, “Structural Evidence of Active Site Adaptability towards Different Sized Substrates of Aromatic Amino Acid Aminotransferase from Psychrobacter Sp. B6” (Materials, 2021).

Key:
Assay type in all cases: binding
[1] = molecular target: T1, PsyArAT (psychrophilic aromatic amino acid aminotransferase) (Psychrobacter sp. B6, UniProt C7E5X4); test: X-ray crystal structure (co-crystallisation); settings: active site, competitive inhibitor; both monomers; 20-fold molar excess of ligand; pH 7.5; partial PLP occupancy
T1 construct: full-length Met1-Asp398, homodimer; E. coli; FOH/YOH/DOH complexes: protein as described previously; new construct: codon-optimised gene in pMCSG7, His6 tag removed by TEV, ArcticExpress (DE3)

[2] = molecular target: T1, PsyArAT (psychrophilic aromatic amino acid aminotransferase); test: X-ray crystal structure (soaking of native crystals); settings: active site, competitive inhibitor; bound in monomers A and C only; 10-fold molar excess of ligand, 5-fold PLP; pH 7.5
[3] = molecular target: T1, PsyArAT (psychrophilic aromatic amino acid aminotransferase); test: X-ray crystal structure (crystals grown in DL-malic acid); settings: active site, competitive inhibitor; 2.1 M DL-malic acid pH 7.0, 0.1 M Tris-HCl pH 7.5

T1 sequence (C7E5X4 entry or part of it): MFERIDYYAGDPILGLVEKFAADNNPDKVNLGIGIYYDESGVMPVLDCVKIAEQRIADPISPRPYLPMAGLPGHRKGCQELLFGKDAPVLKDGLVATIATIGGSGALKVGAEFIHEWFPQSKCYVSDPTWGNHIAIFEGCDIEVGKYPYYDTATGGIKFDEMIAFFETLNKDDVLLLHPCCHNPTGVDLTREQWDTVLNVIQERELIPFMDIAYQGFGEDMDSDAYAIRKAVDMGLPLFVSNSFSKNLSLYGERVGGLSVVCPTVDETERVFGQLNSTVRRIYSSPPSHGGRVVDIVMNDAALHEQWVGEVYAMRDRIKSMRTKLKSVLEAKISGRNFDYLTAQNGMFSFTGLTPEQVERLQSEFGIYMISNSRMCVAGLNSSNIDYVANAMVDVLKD

| Compound | X-ray crystal structure (co-crystallisation) [1] | also measured |
| --- | --- | --- |
| O=C(O)[C@@H](O)Cc1ccc(O)cc1 [YOH, 3-(4-hydroxyphenyl)-lactic acid] | interaction of the YOH inhibitor with the residues forming the active site of subunit A |  |
| O=C(O)[C@@H](O)Cc1c[nH]c2ccccc12 [WOH, 3-indolelactic acid] |  | X-ray crystal structure (soaking of native crystals) [2]: The carboxylic group of the WOH is planar to the Arg374 guanidine group |
| O=C(O)[C@@H](O)Cc1ccccc1 [FOH, 3-phenyllactic acid] | carboxyl group of FOH creates two parallel hydrogen bonds with the guanidine group of Arg374 |  |
| O=C(O)C[C@H](O)C(=O)O [DOH, L-malic acid] |  | X-ray crystal structure (crystals grown in DL-malic acid) [3]: only L-malic acid (DOH) was bound in the active center |
